Reference: ChEMBL document CHEMBL2157907, “Optimization of anti-Trypanosoma cruzi oxadiazoles leads to identification of compounds with efficacy in infected mice” (Bioorg Med Chem, 2012)
Activity calls are given as the source filed them. The calls are words filed in the database; no cut-off is given here.

How the values were obtained:
Cruzipain = Cruzipain (Trypanosoma cruzi, UniProt P25779); test: Inhibition of Trypanosoma cruzi cruzain using Z-Phe-Arg-aminomethylcoumarin as substrate after 10 mins
Cruzipain, sequence (P25779 whole entry): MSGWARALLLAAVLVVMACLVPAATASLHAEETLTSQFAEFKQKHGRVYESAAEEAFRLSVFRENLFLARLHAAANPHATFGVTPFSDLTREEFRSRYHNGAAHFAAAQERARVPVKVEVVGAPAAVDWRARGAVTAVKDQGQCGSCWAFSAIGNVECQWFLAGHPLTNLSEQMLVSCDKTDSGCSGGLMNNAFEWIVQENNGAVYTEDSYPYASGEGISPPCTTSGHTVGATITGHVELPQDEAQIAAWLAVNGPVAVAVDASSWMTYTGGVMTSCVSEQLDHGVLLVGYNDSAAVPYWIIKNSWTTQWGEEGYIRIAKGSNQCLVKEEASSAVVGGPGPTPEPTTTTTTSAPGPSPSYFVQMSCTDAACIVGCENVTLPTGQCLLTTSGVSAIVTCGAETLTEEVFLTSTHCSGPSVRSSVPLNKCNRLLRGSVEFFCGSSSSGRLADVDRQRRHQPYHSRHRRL

[1] = target: Cruzipain (Trypanosoma cruzi) (UniProt P25779); test: Inhibition of Trypanosoma cruzi cruzain using Z-Phe-Arg-aminomethylcoumarin as substrate at 100 uM after 10 mins
Cruzipain (Trypanosoma cruzi), sequence (P25779 123-467 limits assumed): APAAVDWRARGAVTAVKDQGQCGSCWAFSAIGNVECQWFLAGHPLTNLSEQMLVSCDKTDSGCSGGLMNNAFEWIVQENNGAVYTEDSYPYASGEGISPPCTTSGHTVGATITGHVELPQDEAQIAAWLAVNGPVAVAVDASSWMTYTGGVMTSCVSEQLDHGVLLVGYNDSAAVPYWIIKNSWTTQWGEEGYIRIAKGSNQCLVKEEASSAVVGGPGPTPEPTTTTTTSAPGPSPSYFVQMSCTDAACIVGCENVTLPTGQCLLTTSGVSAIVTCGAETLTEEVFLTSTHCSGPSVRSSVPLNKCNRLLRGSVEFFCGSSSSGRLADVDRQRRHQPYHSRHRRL

[2] = Cytotoxicity against BALB/c mouse splenocytes after 24 hrs by [3H]-thymidine incorporation assay; assay type: cell-based, Splenocyte; details: read-out: LC50
Trypanosoma cruzi [3] = test: Induction of mitochondria degeneration in trypomastigotes of Trypanosoma cruzi Y at 9.5 uM after 24 hrs by […] electron microscopic analysis; assay type: functional, organism-based
Trypanosoma cruzi [4] = test: Induction of kinetoplast enlargement in trypomastigotes of Trypanosoma cruzi Y at 9.5 uM after 24 hrs by […] electron microscopic analysis; assay type: functional, organism-based
Trypanosoma cruzi [5] = test: Antitrypanosomal activity against trypomastigotes of Trypanosoma cruzi Y in BALB/c mouse peritoneal exudate macrophages assessed as reduction of parasite infection to cells at 10 ug/ml treated simultaneously with parasite measured after 2 hrs; assay type: functional, organism-based
Trypanosoma cruzi [6] = test: Antitrypanosomal activity against trypomastigotes of Trypanosoma cruzi Y infected in BALB/c mouse assessed as reduction of parasite level in blood at 50 mg/kg, po administered after 5 days of postinfection qd for 5 days; assay type: functional, organism-based; set-up: dose 50 mg/kg
Trypanosoma cruzi [7] = test: Induction of golgi apparatus degeneration in trypomastigotes of Trypanosoma cruzi Y at 9.5 uM after 24 hrs by […] electron microscopic analysis; assay type: functional, organism-based
Trypanosoma cruzi [8] = test: Induction of ultrastructural changes in trypomastigotes of Trypanosoma cruzi Y assessed as plasma membrane protrusions at 30 uM after 24 hrs by scanning electron microscopic analysis; assay type: functional
Trypanosoma cruzi [9] = test: Antitrypanosomal activity against trypomastigotes of Trypanosoma cruzi Y infected in BALB/c mouse peritoneal exudate macrophages assessed as reduction of parasite level at 10 ug/ml after 4 days; assay type: functional, organism-based
Trypanosoma cruzi [10] = test: Induction of endoplasmic reticulum degeneration in trypomastigotes of Trypanosoma cruzi Y at 9.5 uM after 24 hrs by […] electron microscopic analysis; assay type: functional, organism-based
Trypanosoma cruzi [11] = test: Antitrypanosomal activity against trypomastigotes of Trypanosoma cruzi Y infected in rhesus monkey LLC-MK2 cells assessed parasite viability after 24 hrs; assay type: functional, organism-based; details: LLC-MK2, 24 h
Trypanosoma cruzi [12] = test: Antitrypanosomal activity against epimastigotes of Trypanosoma cruzi Y after 5 days; assay type: functional, organism-based; details: 120 h
Mus musculus [13] = test: Toxicity in BALB/c mouse assessed as serum alkaline phosphatase level at 25 mg/kg, po after 24 hrs; assay type: organism-based; set-up: dose 25 mg/kg, route oral; details: in vivo
Mus musculus [14] = test: Toxicity in BALB/c mouse assessed as serum ALB level at 50 mg/kg, po after 24 hrs; assay type: organism-based; set-up: dose 50 mg/kg, route oral; details: in vivo
Mus musculus [15] = test: Toxicity in BALB/c mouse assessed as serum GGT level at 100 mg/kg, po after 24 hrs; assay type: organism-based; set-up: dose 100 mg/kg, route oral; details: in vivo
Mus musculus [16] = test: Toxicity in BALB/c mouse assessed as serum Ca2+ level at 50 mg/kg, po after 24 hrs; assay type: organism-based; set-up: dose 50 mg/kg, route oral; details: in vivo
Mus musculus [17] = test: Toxicity in BALB/c mouse assessed as serum uric acid level at 50 mg/kg, po after 24 hrs; assay type: organism-based; set-up: dose 50 mg/kg, route oral; details: in vivo
Mus musculus [18] = test: Toxicity in BALB/c mouse assessed as serum cholesterol level at 25 mg/kg, po after 24 hrs; assay type: organism-based; set-up: dose 25 mg/kg, route oral; details: in vivo
Mus musculus [19] = test: Toxicity in BALB/c mouse assessed as serum globulin level at 25 mg/kg, po after 24 hrs; assay type: organism-based; set-up: dose 25 mg/kg, route oral; details: in vivo
Mus musculus [20] = test: Toxicity in BALB/c mouse assessed as serum uric acid level at 100 mg/kg, po after 24 hrs; assay type: organism-based; set-up: dose 100 mg/kg, route oral; details: in vivo
Mus musculus [21] = test: Toxicity in BALB/c mouse assessed as serum ALB level at 25 mg/kg, po after 24 hrs; assay type: organism-based; set-up: dose 25 mg/kg, route oral; details: in vivo
Mus musculus [22] = test: Toxicity in BALB/c mouse assessed as serum ALT level at 50 mg/kg, po after 24 hrs; assay type: organism-based; set-up: dose 50 mg/kg, route oral; details: in vivo
Mus musculus [23] = test: Toxicity in BALB/c mouse assessed as serum Ca2+ level at 25 mg/kg, po after 24 hrs; assay type: organism-based; set-up: dose 25 mg/kg, route oral; details: in vivo
Mus musculus [24] = test: Toxicity in BALB/c mouse assessed as serum BUN level at 50 mg/kg, po after 24 hrs; assay type: organism-based; set-up: dose 50 mg/kg, route oral; details: in vivo
Trypanosoma cruzi [25] = test: Induction of endoplasmic reticulum degeneration in trypomastigotes of Trypanosoma cruzi Y at 3.5 uM after 24 hrs by […] electron microscopic analysis; assay type: functional, organism-based
Mus musculus [26] = test: Toxicity in BALB/c mouse assessed as serum total proteins level at 50 mg/kg, po after 24 hrs; assay type: organism-based; set-up: dose 50 mg/kg, route oral; details: in vivo
Mus musculus [27] = test: Toxicity in BALB/c mouse assessed as mortality at 25 to 100 mg/kg, po; assay type: organism-based; set-up: dose 25-100 mg/kg, route oral; details: in vivo
[28] = Therapeutic index, ratio of LC50 for BALB/c mouse splenocytes to IC50 for Trypanosoma cruzi Y; details: read-out: Ratio LC50/IC50
Mus musculus [29] = test: Toxicity in BALB/c mouse assessed as serum globulin level at 100 mg/kg, po after 24 hrs; assay type: organism-based; set-up: dose 100 mg/kg, route oral; details: in vivo
Mus musculus [30] = test: Toxicity in BALB/c mouse assessed as serum BUN level at 100 mg/kg, po after 24 hrs; assay type: organism-based; set-up: dose 100 mg/kg, route oral; details: in vivo
Mus musculus [31] = test: Toxicity in BALB/c mouse assessed as serum AML level at 100 mg/kg, po after 24 hrs; assay type: organism-based; set-up: dose 100 mg/kg, route oral; details: in vivo
Mus musculus [32] = test: Toxicity in BALB/c mouse assessed as serum total proteins level at 25 mg/kg, po after 24 hrs; assay type: organism-based; set-up: dose 25 mg/kg, route oral; details: in vivo
Mus musculus [33] = test: Toxicity in BALB/c mouse assessed as serum ALB level at 100 mg/kg, po after 24 hrs; assay type: organism-based; set-up: dose 100 mg/kg, route oral; details: in vivo
Mus musculus [34] = test: Toxicity in BALB/c mouse assessed as serum BUN level at 25 mg/kg, po after 24 hrs; assay type: organism-based; set-up: dose 25 mg/kg, route oral; details: in vivo
Mus musculus [35] = test: Toxicity in BALB/c mouse assessed as serum alkaline phosphatase level at 100 mg/kg, po after 24 hrs; assay type: organism-based; set-up: dose 100 mg/kg, route oral; details: in vivo
Mus musculus [36] = test: Toxicity in BALB/c mouse assessed as serum cholesterol level at 100 mg/kg, po after 24 hrs; assay type: organism-based; set-up: dose 100 mg/kg, route oral; details: in vivo
Mus musculus [37] = test: Toxicity in BALB/c mouse assessed as serum cholesterol level at 50 mg/kg, po after 24 hrs; assay type: organism-based; set-up: dose 50 mg/kg, route oral; details: in vivo
Mus musculus [38] = test: Toxicity in BALB/c mouse assessed as serum ALT level at 25 mg/kg, po after 24 hrs; assay type: organism-based; set-up: dose 25 mg/kg, route oral; details: in vivo
Mus musculus [39] = test: Toxicity in BALB/c mouse assessed as serum AML level at 50 mg/kg, po after 24 hrs; assay type: organism-based; set-up: dose 50 mg/kg, route oral; details: in vivo
Mus musculus [40] = test: Toxicity in BALB/c mouse assessed as serum ALT level at 100 mg/kg, po after 24 hrs; assay type: organism-based; set-up: dose 100 mg/kg, route oral; details: in vivo
Trypanosoma cruzi [41] = test: Induction of kinetoplast enlargement in trypomastigotes of Trypanosoma cruzi Y at 3.5 uM after 24 hrs by […] electron microscopic analysis; assay type: functional, organism-based
Mus musculus [42] = test: Toxicity in BALB/c mouse assessed as serum total proteins level at 100 mg/kg, po after 24 hrs; assay type: organism-based; set-up: dose 100 mg/kg, route oral; details: in vivo
Mus musculus [43] = test: Toxicity in BALB/c mouse assessed as serum GGT level at 25 mg/kg, po after 24 hrs; assay type: organism-based; set-up: dose 25 mg/kg, route oral; details: in vivo
Mus musculus [44] = test: Toxicity in BALB/c mouse assessed as serum alkaline phosphatase level at 50 mg/kg, po after 24 hrs; assay type: organism-based; set-up: dose 50 mg/kg, route oral; details: in vivo
Mus musculus [45] = test: Toxicity in BALB/c mouse assessed as serum uric acid level at 25 mg/kg, po after 24 hrs; assay type: organism-based; set-up: dose 25 mg/kg, route oral; details: in vivo
Mus musculus [46] = test: Toxicity in BALB/c mouse assessed as serum globulin level at 50 mg/kg, po after 24 hrs; assay type: organism-based; set-up: dose 50 mg/kg, route oral; details: in vivo
Trypanosoma cruzi [47] = test: Induction of ultrastructural changes in trypomastigotes of Trypanosoma cruzi Y assessed as plasma membrane protrusions at 10 uM after 24 hrs by scanning electron microscopic analysis; assay type: functional
Trypanosoma cruzi [48] = test: Induction of golgi apparatus degeneration in trypomastigotes of Trypanosoma cruzi Y at 3.5 uM after 24 hrs by […] electron microscopic analysis; assay type: functional, organism-based
Mus musculus [49] = test: Toxicity in BALB/c mouse assessed as serum AML level at 25 mg/kg, po after 24 hrs; assay type: organism-based; set-up: dose 25 mg/kg, route oral; details: in vivo
Trypanosoma cruzi [50] = test: Induction of mitochondria degeneration in trypomastigotes of Trypanosoma cruzi Y at 3.5 uM after 24 hrs by […] electron microscopic analysis; assay type: functional, organism-based
Mus musculus [51] = test: Toxicity in BALB/c mouse assessed as serum Ca2+ level at 100 mg/kg, po after 24 hrs; assay type: organism-based; set-up: dose 100 mg/kg, route oral; details: in vivo
Mus musculus [52] = test: Toxicity in BALB/c mouse assessed as serum GGT level at 50 mg/kg, po after 24 hrs; assay type: organism-based; set-up: dose 50 mg/kg, route oral; details: in vivo

COc1cc(/C=N/NC(=O)c2nc(-c3ccc(Cl)cc3)no2)ccc1O
IC50 (Cruzipain): 0.04 µM
inhibition [1]: 92%
CC50 at 24 h [2]: > 100 µg/mL

O=C(N/N=C/c1ccc2c(c1)OCO2)c1nc(-c2ccc(F)cc2)no1
Activity (Trypanosoma cruzi [3]): Active
Activity (Trypanosoma cruzi [4]): Active
Activity (Trypanosoma cruzi [5]): Active
Activity (Trypanosoma cruzi [6]): inactive
Activity (Trypanosoma cruzi [7]): Active
Activity (Trypanosoma cruzi [8]): 80%
inhibition [1]: 34%
Activity (Trypanosoma cruzi [9]): Active
CC50 at 24 h [2]: > 100 µg/mL
Activity (Trypanosoma cruzi [10]): Active
IC50 (Trypanosoma cruzi [11]): 9.5 µM
IC50 (Trypanosoma cruzi [12]): 12.2 µM

COc1cc(/C=N/NC(=O)c2nc(-c3ccc(F)cc3)no2)ccc1O
inhibition [1]: 63%
CC50 at 24 h [2]: > 100 µg/mL

O=C(N/N=C/c1ccc2c(c1)OCO2)c1nc(-c2ccc(Cl)cc2)no1
Activity (Mus musculus [13]): 148 U/L
Activity (Mus musculus [14]): 2.67 g/dL
Activity (Mus musculus [15]): 1 U/L
Activity (Mus musculus [16]): 9.45 mg/dL
Activity (Mus musculus [17]): 1.46 mg/dL
Activity (Mus musculus [18]): 53 mg/dL
Activity (Mus musculus [19]): 2.4 g/dL
Activity (Mus musculus [20]): 2 mg/dL
Activity (Mus musculus [21]): 2.35 g/dL
Activity (Mus musculus [22]): 36 U/L
Activity (Mus musculus [23]): 9.45 mg/dL
Activity (Mus musculus [24]): 18.07 mg/dL
Activity (Trypanosoma cruzi [5]): Active
Activity (Trypanosoma cruzi [6]): Active
Activity (Trypanosoma cruzi [25]): Active
Activity (Mus musculus [26]): 4.86 g/dL
Activity (Mus musculus [27]): Non-toxic
selectivity ratio [28]: 50
Activity (Mus musculus [29]): 2.73 g/dL
Activity (Mus musculus [30]): 13.7 mg/dL
Activity (Mus musculus [31]): 1170 U/L
Activity (Mus musculus [32]): 4.75 g/dL
Activity (Mus musculus [33]): 2.36 g/dL
Activity (Mus musculus [34]): 17.8 mg/dL
Activity (Mus musculus [35]): 155.5 U/L
Activity (Mus musculus [36]): 54.5 mg/dL
inhibition [1]: 42%
Activity (Trypanosoma cruzi [9]): Active
Activity (Mus musculus [37]): 59.5 mg/dL
Activity (Mus musculus [38]): 32.5 U/L
Activity (Mus musculus [39]): 1268 U/L
Activity (Mus musculus [40]): 29.67 U/L
Activity (Trypanosoma cruzi [41]): Active
CC50 at 24 h [2]: > 100 µg/mL
Activity (Mus musculus [42]): 5.1 g/dL
Activity (Mus musculus [43]): 1 U/L
Activity (Mus musculus [44]): 142.7 U/L
Activity (Mus musculus [45]): 1.65 mg/dL
Activity (Mus musculus [46]): 2.16 g/dL
Activity (Trypanosoma cruzi [47]): 80%
Activity (Trypanosoma cruzi [48]): Active
Activity (Mus musculus [49]): 1183 U/L
IC50 (Trypanosoma cruzi [11]): 3.5 µM
IC50 (Trypanosoma cruzi [12]): 7.5 µM
Activity (Trypanosoma cruzi [50]): Active
Activity (Mus musculus [51]): 9.56 mg/dL
Activity (Mus musculus [52]): 0.67 U/L
